#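 48-hour exposure; five concentrations; linearly interpolated endpoints. TGI denotes the concentration required for complete inhibition of growth.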
# Experiments:
# Experiment in all cases: growth of human tumour cells (NCI), 48 h
# OVCAR-4 ovarian = tested on: OVCAR-4 ovarian
# RPMI-8226 leukemia = tested on: RPMI-8226 leukemia
# NCI-H23 lung = tested on: NCI-H23 lung
# SF-295 CNS = tested on: SF-295 CNS
# CAKI-1 renal = tested on: CAKI-1 renal
# HS 578T breast = tested on: HS 578T breast
# MDA-MB-435 = tested on: MDA-MB-435
# IGROV1 ovarian = tested on: IGROV1 ovarian
# HCT-15 colon = tested on: HCT-15 colon
# OVCAR-5 ovarian = tested on: OVCAR-5 ovarian
# SF-539 CNS = tested on: SF-539 CNS
# HCT-116 colon = tested on: HCT-116 colon
# PC-3 prostate = tested on: PC-3 prostate
# MALME-3M melanoma = tested on: MALME-3M melanoma
# MDA-N = tested on: MDA-N
# HL-60(TB) leukemia = tested on: HL-60(TB) leukemia
# COLO 205 colon = tested on: COLO 205 colon
# OVCAR-8 ovarian = tested on: OVCAR-8 ovarian
# BT-549 breast = tested on: BT-549 breast
# KM12 colon = tested on: KM12 colon
# ACHN renal = tested on: ACHN renal
# CCRF-CEM leukemia = tested on: CCRF-CEM leukemia
# SK-MEL-2 melanoma = tested on: SK-MEL-2 melanoma
# OVCAR-3 ovarian = tested on: OVCAR-3 ovarian
# UACC-257 melanoma = tested on: UACC-257 melanoma
# SR leukemia = tested on: SR leukemia
# K-562 leukemia = tested on: K-562 leukemia
# SK-MEL-28 melanoma = tested on: SK-MEL-28 melanoma
# MCF7 breast = tested on: MCF7 breast
# SN12C renal = tested on: SN12C renal
# NCI-H460 lung = tested on: NCI-H460 lung
# SNB-75 CNS = tested on: SNB-75 CNS
# U251 CNS = tested on: U251 CNS
# T-47D breast = tested on: T-47D breast
# SF-268 CNS = tested on: SF-268 CNS
# MDA-MB-231 breast = tested on: MDA-MB-231 breast
# HOP-92 NSCLC = tested on: HOP-92 NSCLC
# DU-145 prostate = tested on: DU-145 prostate
# SW-620 colon = tested on: SW-620 colon
# NCI-H226 lung = tested on: NCI-H226 lung
# SK-MEL-5 melanoma = tested on: SK-MEL-5 melanoma
# UO-31 renal = tested on: UO-31 renal
# 786-0 renal = tested on: 786-0 renal
# HOP-62 NSCLC = tested on: HOP-62 NSCLC
# TK-10 renal = tested on: TK-10 renal
# A498 renal = tested on: A498 renal
# EKVX NSCLC = tested on: EKVX NSCLC
# MOLT-4 leukemia = tested on: MOLT-4 leukemia
# NCI/ADR-RES ovarian = tested on: NCI/ADR-RES ovarian
# NCI-H522 lung = tested on: NCI-H522 lung
# M14 melanoma = tested on: M14 melanoma
# UACC-62 melanoma = tested on: UACC-62 melanoma
# A549 NSCLC = tested on: A549 NSCLC
# HT29 colon = tested on: HT29 colon
# SK-OV-3 ovarian = tested on: SK-OV-3 ovarian
# SNB-19 CNS = tested on: SNB-19 CNS
# LOX IMVI melanoma = tested on: LOX IMVI melanoma
# RXF 393 renal = tested on: RXF 393 renal
smiles,measurement,setting,value
CC(C)=CCc1c(O)c(CC=C(C)C)c2oc3c(c(=O)c2c1O)C(C=C(C)C)Oc1cc(O)ccc1-3 (configuration not stated),TGI,OVCAR-4 ovarian,23.3 µM
same,TGI,RPMI-8226 leukemia,20.6 µM
same,TGI,NCI-H23 lung,16.2 µM
same,TGI,SF-295 CNS,19.2 µM
same,TGI,CAKI-1 renal,19.4 µM
same,TGI,HS 578T breast,43.8 µM
same,TGI,MDA-MB-435,13.7 µM
same,TGI,IGROV1 ovarian,20.2 µM
same,TGI,HCT-15 colon,19.1 µM
same,TGI,OVCAR-5 ovarian,33.1 µM
same,TGI,SF-539 CNS,25.5 µM
same,TGI,HCT-116 colon,13.2 µM
same,TGI,PC-3 prostate,14.4 µM
same,TGI,MALME-3M melanoma,37 µM
same,TGI,MDA-N,12.1 µM
same,TGI,HL-60(TB) leukemia,29.8 µM
same,TGI,COLO 205 colon,30.3 µM
same,TGI,OVCAR-8 ovarian,24.4 µM
same,TGI,BT-549 breast,25 µM
same,TGI,KM12 colon,11.6 µM
same,TGI,ACHN renal,15.4 µM
same,TGI,CCRF-CEM leukemia,7.68 µM
same,TGI,SK-MEL-2 melanoma,7.93 µM
same,TGI,OVCAR-3 ovarian,14.8 µM
same,TGI,UACC-257 melanoma,26.9 µM
same,TGI,SR leukemia,8.29 µM
same,TGI,K-562 leukemia,16.6 µM
same,TGI,SK-MEL-28 melanoma,21.5 µM
same,TGI,MCF7 breast,17.5 µM
same,TGI,SN12C renal,18.2 µM
same,TGI,NCI-H460 lung,17 µM
same,TGI,SNB-75 CNS,14.1 µM
same,TGI,U251 CNS,16.7 µM
same,TGI,T-47D breast,15.4 µM
same,TGI,SF-268 CNS,28 µM
same,TGI,MDA-MB-231 breast,25.6 µM
same,TGI,HOP-92 NSCLC,28.3 µM
same,TGI,DU-145 prostate,24.3 µM
same,TGI,SW-620 colon,18.1 µM
same,TGI,NCI-H226 lung,49.8 µM
same,TGI,SK-MEL-5 melanoma,21.5 µM
same,TGI,UO-31 renal,15.7 µM
same,TGI,786-0 renal,19.5 µM
same,TGI,HOP-62 NSCLC,31 µM
same,TGI,TK-10 renal,13.3 µM
same,TGI,A498 renal,29.8 µM
same,TGI,EKVX NSCLC,14.5 µM
same,TGI,MOLT-4 leukemia,16.6 µM
same,TGI,NCI/ADR-RES ovarian,38.4 µM
same,TGI,NCI-H522 lung,15.2 µM
same,TGI,M14 melanoma,21 µM
same,TGI,UACC-62 melanoma,18 µM
same,TGI,A549 NSCLC,20.6 µM
same,TGI,HT29 colon,23.1 µM
same,TGI,SK-OV-3 ovarian,29 µM
same,TGI,SNB-19 CNS,24.2 µM
same,TGI,LOX IMVI melanoma,16 µM
CN(N=O)C(N)=NC(=O)c1ccccc1,TGI,OVCAR-4 ovarian,> 100 µM
same,TGI,RPMI-8226 leukemia,> 100 µM
same,TGI,NCI-H23 lung,> 100 µM
same,TGI,SF-295 CNS,> 100 µM
same,TGI,CAKI-1 renal,> 100 µM
same,TGI,HS 578T breast,> 100 µM
same,TGI,MDA-MB-435,> 100 µM
same,TGI,IGROV1 ovarian,> 100 µM
same,TGI,HCT-15 colon,> 100 µM
same,TGI,OVCAR-5 ovarian,> 100 µM
same,TGI,SF-539 CNS,> 100 µM
same,TGI,HCT-116 colon,> 100 µM
same,TGI,PC-3 prostate,> 100 µM
same,TGI,MALME-3M melanoma,> 100 µM
same,TGI,MDA-N,> 100 µM
same,TGI,COLO 205 colon,> 100 µM
same,TGI,OVCAR-8 ovarian,> 100 µM
same,TGI,BT-549 breast,> 100 µM
same,TGI,KM12 colon,> 100 µM
same,TGI,ACHN renal,> 100 µM
same,TGI,CCRF-CEM leukemia,> 100 µM
same,TGI,SK-MEL-2 melanoma,> 100 µM
same,TGI,OVCAR-3 ovarian,> 100 µM
same,TGI,UACC-257 melanoma,> 100 µM
same,TGI,RXF 393 renal,> 100 µM
same,TGI,SR leukemia,> 100 µM
same,TGI,K-562 leukemia,> 100 µM
same,TGI,MCF7 breast,> 100 µM
same,TGI,NCI-H460 lung,40.6 µM
same,TGI,SNB-75 CNS,> 100 µM
same,TGI,U251 CNS,> 100 µM
same,TGI,T-47D breast,> 100 µM
same,TGI,SF-268 CNS,> 100 µM
same,TGI,MDA-MB-231 breast,> 100 µM
same,TGI,HOP-92 NSCLC,> 100 µM
same,TGI,SW-620 colon,> 100 µM
same,TGI,NCI-H226 lung,> 100 µM
same,TGI,SK-MEL-5 melanoma,> 100 µM
same,TGI,UO-31 renal,> 100 µM
same,TGI,786-0 renal,> 100 µM
same,TGI,HOP-62 NSCLC,> 100 µM
same,TGI,TK-10 renal,> 100 µM
same,TGI,A498 renal,> 100 µM
same,TGI,EKVX NSCLC,> 100 µM
same,TGI,MOLT-4 leukemia,> 100 µM
same,TGI,NCI/ADR-RES ovarian,> 100 µM
same,TGI,NCI-H522 lung,> 100 µM
same,TGI,M14 melanoma,> 100 µM
same,TGI,UACC-62 melanoma,> 100 µM
same,TGI,A549 NSCLC,> 100 µM
same,TGI,HT29 colon,> 100 µM
same,TGI,SK-OV-3 ovarian,> 100 µM
same,TGI,SNB-19 CNS,> 100 µM
same,TGI,LOX IMVI melanoma,> 100 µM
N#CCCN(CCC#N)c1ccc(/C=C2\N=C(c3ccccc3)N(NC(=O)c3ccncc3)C2=O)cc1,TGI,OVCAR-4 ovarian,> 100 µM
same,TGI,RPMI-8226 leukemia,> 100 µM
same,TGI,SF-295 CNS,> 100 µM
same,TGI,HS 578T breast,> 100 µM
same,TGI,MDA-MB-435,> 100 µM
same,TGI,IGROV1 ovarian,> 100 µM
same,TGI,HCT-15 colon,> 100 µM
same,TGI,OVCAR-5 ovarian,> 100 µM
same,TGI,SF-539 CNS,> 100 µM
same,TGI,HCT-116 colon,> 100 µM
same,TGI,PC-3 prostate,> 100 µM
same,TGI,MDA-N,> 100 µM
same,TGI,HL-60(TB) leukemia,> 100 µM
same,TGI,COLO 205 colon,> 100 µM
same,TGI,OVCAR-8 ovarian,> 100 µM
same,TGI,BT-549 breast,> 100 µM
same,TGI,KM12 colon,> 100 µM
same,TGI,ACHN renal,> 100 µM
same,TGI,SK-MEL-2 melanoma,> 100 µM
same,TGI,OVCAR-3 ovarian,> 100 µM
same,TGI,UACC-257 melanoma,> 100 µM
same,TGI,RXF 393 renal,> 100 µM
same,TGI,K-562 leukemia,> 100 µM
same,TGI,SK-MEL-28 melanoma,> 100 µM
same,TGI,MCF7 breast,> 100 µM
same,TGI,SN12C renal,> 100 µM
same,TGI,NCI-H460 lung,> 100 µM
same,TGI,U251 CNS,> 100 µM
same,TGI,T-47D breast,> 100 µM
same,TGI,SF-268 CNS,> 100 µM
same,TGI,MDA-MB-231 breast,> 100 µM
same,TGI,HOP-92 NSCLC,> 100 µM
same,TGI,DU-145 prostate,> 100 µM
same,TGI,SW-620 colon,> 100 µM
same,TGI,NCI-H226 lung,> 100 µM
same,TGI,SK-MEL-5 melanoma,> 100 µM
same,TGI,UO-31 renal,> 100 µM
same,TGI,786-0 renal,> 100 µM
same,TGI,HOP-62 NSCLC,> 100 µM
same,TGI,TK-10 renal,> 100 µM
same,TGI,A498 renal,> 100 µM
same,TGI,EKVX NSCLC,> 100 µM
same,TGI,MOLT-4 leukemia,> 100 µM
same,TGI,NCI/ADR-RES ovarian,> 100 µM
same,TGI,M14 melanoma,> 100 µM
same,TGI,UACC-62 melanoma,> 100 µM
same,TGI,A549 NSCLC,> 100 µM
same,TGI,HT29 colon,> 100 µM
same,TGI,SK-OV-3 ovarian,> 100 µM
same,TGI,SNB-19 CNS,> 100 µM
same,TGI,LOX IMVI melanoma,> 100 µM
